Series [1] in a line: Solubility versus pH profile.
The next series addresses T1, hAMY3R (Homo sapiens, UniProt O60896+P30988).
T1 sequence (P30988 25-474): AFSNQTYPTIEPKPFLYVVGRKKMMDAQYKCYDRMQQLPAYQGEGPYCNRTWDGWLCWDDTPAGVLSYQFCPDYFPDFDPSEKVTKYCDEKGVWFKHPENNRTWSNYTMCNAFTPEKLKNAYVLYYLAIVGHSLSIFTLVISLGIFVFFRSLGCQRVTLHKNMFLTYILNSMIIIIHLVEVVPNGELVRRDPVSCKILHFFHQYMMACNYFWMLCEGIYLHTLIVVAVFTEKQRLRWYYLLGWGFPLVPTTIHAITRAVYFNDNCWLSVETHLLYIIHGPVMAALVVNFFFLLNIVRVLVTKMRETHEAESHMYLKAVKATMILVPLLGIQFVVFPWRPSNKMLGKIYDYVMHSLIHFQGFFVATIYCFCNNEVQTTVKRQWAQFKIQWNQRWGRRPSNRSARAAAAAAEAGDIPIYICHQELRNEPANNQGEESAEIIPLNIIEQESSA
T1 sequence (O60896 24-148 partner): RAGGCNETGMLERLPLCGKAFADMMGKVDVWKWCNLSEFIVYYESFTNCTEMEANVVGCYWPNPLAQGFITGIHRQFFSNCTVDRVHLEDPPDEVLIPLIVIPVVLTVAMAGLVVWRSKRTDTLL
Description: cAMP-responsive element luciferase reporter assay, human AMY3R. To be noted: for ratio hCTR/hAMY3R: ratio of luciferase EC50 values. In kind it is cell-based. More on the design: expressed in transfected cells. For orientation: Reporter assays use an easily measured gene product as a stand-in for the process of interest.

Another series deals with T2, rAMY3R (Rattus norvegicus, UniProt P32214+Q9JJ73).
T2 sequence (P32214 25-479 isoform P32214-2 limits assumed): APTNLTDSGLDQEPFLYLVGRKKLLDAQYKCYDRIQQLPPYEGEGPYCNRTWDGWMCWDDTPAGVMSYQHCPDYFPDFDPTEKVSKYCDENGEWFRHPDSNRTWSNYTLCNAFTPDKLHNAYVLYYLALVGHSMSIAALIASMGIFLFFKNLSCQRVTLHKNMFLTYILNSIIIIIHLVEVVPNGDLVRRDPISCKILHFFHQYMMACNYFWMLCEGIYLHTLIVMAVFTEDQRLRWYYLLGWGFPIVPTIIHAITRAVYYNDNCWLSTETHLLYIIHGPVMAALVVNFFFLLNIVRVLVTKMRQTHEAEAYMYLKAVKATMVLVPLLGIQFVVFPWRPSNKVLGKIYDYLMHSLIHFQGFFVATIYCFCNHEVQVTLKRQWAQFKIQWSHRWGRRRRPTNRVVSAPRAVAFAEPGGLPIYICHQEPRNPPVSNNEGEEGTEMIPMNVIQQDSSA
T2 sequence (Q9JJ73 23-147 partner): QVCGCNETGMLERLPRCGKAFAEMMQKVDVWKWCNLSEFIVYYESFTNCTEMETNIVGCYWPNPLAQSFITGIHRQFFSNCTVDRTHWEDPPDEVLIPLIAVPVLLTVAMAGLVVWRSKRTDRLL
Description: scintillation proximity binding assay, rAMY3R membranes. More on the design: expressed in transfected cells; host or cells: BHK tk-ts 13, transient co-transfection (FuGENE 6). The following applies: for ratio rCTR/rAMY3R: ratio of binding IC50 values. On the technique in general: In a scintillation proximity assay essentially only radioactivity close to the scintillant gives light.

Where [2] appears, read: bis-tris-propane buffer, pH 6, aqueous buffer.
Where [3] appears, read: bis-tris-propane buffer, pH 6.5, aqueous buffer.
[4] abbreviates: bis-tris-propane buffer, pH 7, aqueous buffer.
The mark [5] stands for this setting: bis-tris-propane buffer, pH 7.5, aqueous buffer.
Setting [6] is: bis-tris-propane buffer, pH 8, aqueous buffer.
The mark [7] stands for this setting: lactate buffer, pH 4, aqueous buffer.
The mark [8] stands for this setting: lactate buffer, pH 5, aqueous buffer.
Where [9] appears, read: SPA binding assay, Tables S13 and S15, read-out: rAMY3R pIC50 (converted).
Where [10] appears, read: SPA, BHK cell membranes, 125I-rat amylin, 120 min 25 °C, read-out: rAMY3R IC50.

Values after ≈ are worked out from the molar mass of the structure shown. Where two headings read alike, the source gives them in different places. Numbered stars: 1 amine (or outer) side, 2 acyl side, 3 side chain; on linkers, the order of the positions; unused ones are H or OH. Bridge positions count the residues as written; N and C are the ends. Side chains are listed from the residue outwards. Peptide text beside a SMILES is read from it. * marks the point of attachment. C20 diacid = O=C(O)CCCCCCCCCCCCCCCCCCC(=O)*; γGlu = O=C(O)[C@H](CCC(=O)[*:2])N[*:1]

Broadly, the kinetic solubility is solubility judged after dilution from a stock solution rather than from solid.

Turning to `CC[C@H](C)[C@H](NC(=O)[C@H](C)NC(=O)CNC(=O)[C@H](Cc1ccccc1)NC(=O)[C@H](CC(N)=O)NC(=O)[C@@H]1CCCN1C(=O)[C@H](CO)NC(=O)[C@H](CO)NC(=O)[C@H](Cc1c[nH]cn1)NC(=O)[C@H](CCCNC(=N)N)NC(=O)[C@H](CC(C)C)NC(=O)[C@H](Cc1ccccc1)NC(=O)[C@H](CC(N)=O)NC(=O)[C@H](C)NC(=O)[C@H](CC(C)C)NC(=O)[C@H](CCCNC(=N)N)NC(=O)[C@H](CCC(N)=O)NC(=O)[C@@H](NC(=O)[C@H](C)NC(=O)[C@@H]1CSSC[C@H](NC(=O)[C@@H](N)CCCCNC(=O)CC[C@H](NC(=O)CCCCCCCCCCCCCCCCCCC(=O)O)C(=O)O)C(=O)N[C@@H](CC(N)=O)C(=O)N[C@@H]([C@@H](C)O)C(=O)N[C@@H](C)C(=O)N[C@@H]([C@@H](C)O)C(=O)N1)[C@@H](C)O)C(=O)N1CCC[C@H]1C(=O)N[C@@H](CO)C(=O)N[C@@H](CO)C(=O)N[C@H](C(=O)N[C@@H](CC(N)=O)C(=O)N[C@H](C(=O)NCC(=O)N[C@@H](CO)C(=O)N[C@@H](CCCCN)C(=O)N[C@H](C(=O)N[C@@H](Cc1ccc(O)cc1)C(N)=O)[C@@H](C)O)C(C)C)[C@@H](C)O` [Peptide 14], the solubility (kinetic) in series [1] (setting [2]), in series [1] (setting [3]), in series [1] (setting [4]), in series [1] (setting [5]), in series [1] (setting [6]) and in series [1] (setting [7]) was no less than 200 µM in each case. The same compound came in with a kinetic solubility in series [1] (setting [8]) of no less than 200 µM. Further, on hAMY3R (luciferase (human receptor assay), Tables S12 and S14), the “hAMY3R pEC50” value is 9.44. Also, at hAMY3R, the “ratio hCTR/hAMY3R” value stood at 15. Besides, the IC50 on rAMY3R (setting [9]) is 0.912 nM; at rAMY3R (setting [10]), 0.92 nM. For the same compound, the “ratio rCTR/rAMY3R” value on rAMY3R is 60.
Take `CC[C@H](C)[C@H](NC(=O)[C@H](C)NC(=O)CNC(=O)[C@H](Cc1ccccc1)NC(=O)[C@H](CC(N)=O)NC(=O)[C@@H]1CCCN1C(=O)[C@H](CO)NC(=O)[C@H](CO)NC(=O)[C@H](Cc1c[nH]cn1)NC(=O)[C@H](CCCNC(=N)N)NC(=O)[C@H](CC(C)C)NC(=O)[C@H](Cc1ccccc1)NC(=O)[C@H](CC(N)=O)NC(=O)[C@H](C)NC(=O)[C@H](CC(C)C)NC(=O)[C@H](CCCNC(=N)N)NC(=O)[C@H](CCC(N)=O)NC(=O)[C@@H](NC(=O)[C@H](C)NC(=O)[C@@H]1CSSC[C@H](NC(=O)[C@H](CCCCN)NC(=O)CC[C@H](NC(=O)CCCCCCCCCCCCCCCCCCC(=O)O)C(=O)O)C(=O)N[C@@H](CC(N)=O)C(=O)N[C@@H]([C@@H](C)O)C(=O)N[C@@H](C)C(=O)N[C@@H]([C@@H](C)O)C(=O)N1)[C@@H](C)O)C(=O)N1CCC[C@H]1C(=O)N[C@@H](CO)C(=O)N[C@@H](CO)C(=O)N[C@H](C(=O)N1CCC[C@H]1C(=O)N[C@H](C(=O)NCC(=O)N[C@@H](CO)C(=O)N[C@@H](CCC(=O)O)C(=O)N[C@H](C(=O)N[C@@H](Cc1ccc(O)cc1)C(N)=O)[C@@H](C)O)C(C)C)[C@@H](C)O` [Peptide 11] ({C20 diacid-γGlu}-KCNTATCATQRLANFLRHSSPNFGAIPSSTPVGSETY-NH2; disulfide 2-7): the solubility (kinetic) in series [1] (setting [2]), in series [1] (setting [3]), in series [1] (setting [4]), in series [1] (setting [5]), in series [1] (setting [6]) and in series [1] (setting [7]) was no less than 200 µM throughout. The compound also had a kinetic solubility in series [1] (setting [8]) of no less than 200 µM. Also, the EC50 was 0.186 nM on hAMY3R (luciferase (human receptor assay), Tables S12 and S14, read-out: hAMY3R pEC50 (converted)); 0.186 nM on hAMY3R (luciferase (human receptor assay), BHK cells stably expressing hCTR+RAMP3 and CRE-luciferase, 3 h, 37 °C, 10% FBS, read-out: hAMY3R EC50). The “ratio hCTR/hAMY3R” value at hAMY3R is recorded as 11. The IC50 at rAMY3R (setting [9]) and at rAMY3R (setting [10]) was 1.17 nM throughout. The “ratio rCTR/rAMY3R” value on rAMY3R is recorded as 44.
On to `CC[C@H](C)[C@H](NC(=O)[C@H](C)NC(=O)CNC(=O)[C@H](Cc1ccccc1)NC(=O)[C@H](CC(N)=O)NC(=O)[C@@H]1CCCN1C(=O)[C@H](CO)NC(=O)[C@H](CO)NC(=O)[C@H](Cc1c[nH]cn1)NC(=O)[C@H](CCCNC(=N)N)NC(=O)[C@H](CC(C)C)NC(=O)[C@H](Cc1ccccc1)NC(=O)[C@H](CCC(=O)O)NC(=O)[C@H](C)NC(=O)[C@H](CC(C)C)NC(=O)[C@H](CCCNC(=N)N)NC(=O)[C@H](CCC(N)=O)NC(=O)[C@@H](NC(=O)[C@H](C)NC(=O)[C@@H]1CSSC[C@H](NC(=O)[C@@H](N)CCCCNC(=O)CC[C@H](NC(=O)CCCCCCCCCCCCCCCCCCC(=O)O)C(=O)O)C(=O)N[C@@H](CC(N)=O)C(=O)N[C@@H]([C@@H](C)O)C(=O)N[C@@H](C)C(=O)N[C@@H]([C@@H](C)O)C(=O)N1)[C@@H](C)O)C(=O)N1CCC[C@H]1C(=O)N[C@@H](CO)C(=O)N[C@@H](CO)C(=O)N[C@H](C(=O)N[C@@H](CC(N)=O)C(=O)N[C@H](C(=O)NCC(=O)N[C@@H](CO)C(=O)N[C@@H](CCCNC(=N)N)C(=O)N[C@H](C(=O)N[C@@H](Cc1ccc(O)cc1)C(N)=O)[C@@H](C)O)C(C)C)[C@@H](C)O` [Peptide 20] (H-K([γGlu-C20 diacid])CNTATCATQRLAEFLRHSSPNFGAIPSSTNVGSRTY-NH2; disulfide 2-7), for which the kinetic solubility was no less than 200 µM in series [1] (setting [2]); no less than 200 µM in series [1] (setting [3]); no less than 200 µM in series [1] (setting [4]); 183 µM (≈ 812 µg/mL) in series [1] (setting [5]); 109 µM (≈ 484 µg/mL) in series [1] (setting [6]); no less than 200 µM in series [1] (setting [7]). The compound further displayed a solubility (kinetic) in series [1] (setting [8]) of no less than 200 µM. Also, the “ratio hCTR/hAMY3R” value at hAMY3R is 15. Also, the “ratio rCTR/rAMY3R” value at rAMY3R stood at 111.
For the compound `CC[C@H](C)[C@H](NC(=O)[C@H](C)NC(=O)CNC(=O)[C@H](Cc1ccccc1)NC(=O)[C@H](CC(N)=O)NC(=O)[C@@H]1CCCN1C(=O)[C@H](CO)NC(=O)[C@H](CO)NC(=O)[C@H](Cc1c[nH]cn1)NC(=O)[C@H](CCCNC(=N)N)NC(=O)[C@H](CC(C)C)NC(=O)[C@H](Cc1ccccc1)NC(=O)[C@H](CC(=O)O)NC(=O)[C@H](C)NC(=O)[C@H](CC(C)C)NC(=O)[C@H](CCCNC(=N)N)NC(=O)[C@H](CCC(N)=O)NC(=O)[C@@H](NC(=O)[C@H](C)NC(=O)[C@@H]1CSSC[C@H](NC(=O)[C@@H](N)CCCCNC(=O)CC[C@H](NC(=O)CC[C@H](NC(=O)CCCCCCCCCCCCCCCCCCC(=O)O)C(=O)O)C(=O)O)C(=O)N[C@@H](CC(N)=O)C(=O)N[C@@H]([C@@H](C)O)C(=O)N[C@@H](C)C(=O)N[C@@H]([C@@H](C)O)C(=O)N1)[C@@H](C)O)C(=O)N1CCC[C@H]1C(=O)N[C@@H](CO)C(=O)N[C@@H](CO)C(=O)N[C@H](C(=O)N[C@@H](CC(N)=O)C(=O)N[C@H](C(=O)NCC(=O)N[C@@H](CO)C(=O)N[C@@H](CCCNC(=N)N)C(=O)N[C@H](C(=O)N[C@@H](Cc1ccc(O)cc1)C(N)=O)[C@@H](C)O)C(C)C)[C@@H](C)O` [NN1213], the solubility (kinetic) in series [1] (setting [2]) was no less than 200 µM; in series [1] (setting [3]), no less than 200 µM; in series [1] (setting [4]), 155 µM (≈ 706 µg/mL); in series [1] (setting [5]), 106 µM (≈ 483 µg/mL); in series [1] (setting [6]), 110 µM (≈ 501 µg/mL); in series [1] (setting [7]), no less than 200 µM. This compound showed a kinetic solubility in series [1] (setting [8]) of no less than 200 µM. On hAMY3R (listed as 21), the “ratio hCTR/hAMY3R” value was determined as 29. Besides, the “ratio rCTR/rAMY3R” value on rAMY3R is given as 465.

These data come from paper PMC11284788, “NN1213 – A Potent, Long-Acting, and Selective Analog of Human Amylin” (Journal of Medicinal Chemistry, 2024).
